In patent US20240239786A1, “COMPOSITIONS AND METHODS FOR THE TREATMENT AND PREVENTION OF CANCER” (Yale University, priority 2021, published 2024):

Tests used:
PD-L1 = PD-L1 level in BRCA-wild type PEO4 cells; format: cell-based
Description: FIG. 21A depicts representative effects of DB4 and/or olaparib on BRCA-wild type PEO4 cells after 24, 48, and 72 hr. FIG. 21B depicts representative effects of DB4 and/or olaparib on the level of DSBs in BRCA-wild type PEO4 cells. FIG. 21C depicts representative effects of DB4 and/or olaparib on the level of PD-L1 protein in BRCA-wild type PEO4 cells.
FIG. 22 depicts representative effects of DB4 and/or olaparib on PD-L1-positive populations of BRCA-mutated PEO1 and BRCA-wild type PEO4 cells. DB4 and/or olaparib increased the PD-L1-positive population of BRCA-wild type PEO4 cells in the presence of IFNγ.

PEO4 cells = test: MTS cytotoxicity assay, sensitization to olaparib, PEO4; format: cell-based; conditions: 30 μM, olaparib 72 hr
Description: Cells were pre-treated with 30 μM DB4 for 1 hr and then treated with various concentrations of olaparib for 72 hr. Cell survival was determined by MTS cytotoxicity assay. Data are means±SD (N=3-4). […] EOB calculation was used to quantify the synergy of the combination of DB4 and various concentrations of olaparib in PEO1 or PEO4 cells as shown in FIG. 8A. EOB>0, synergism; EOB=0, additivity; EOB<0, antagonism. […] Cells were pre-treated with 30 μM DB4-F for 1 hr and then treated with various concentrations of olaparib for 72 hr. Cell survival was determined by MTS cytotoxicity assay. Data are means±SD (N=3-4). […] EOB calculation was used to quantify the synergy of the combination of DB4-F and various concentrations of olaparib in PEO1 or PEO4 cells as shown in FIG. 8B. EOB>0, synergism; EOB=0, additivity; EOB<0, antagonism. […] Cell survival was determined by MTS cytotoxicity assay. […] Caspase 3/7 activity was expressed as RLU per μg/μl protein. […] Caspase 3/7 activity was expressed as RLU per μg/μl protein. […] Cells were treated and caspase 3/7 activity was measured as described in FIG. 8G and FIG. 8H.
It was also examined whether DB4 sensitized BRCA-wild type EOC cells to a PARP inhibitor. BRCA2-mutated PEO1 and BRCA2-wild type PEO4 cells were treated with DB4 at 30 μM in combination with various concentrations of olaparib and cell survival was determined. […]

With `C=CCn1c(SCc2cccc(Cl)c2)nnc1C1CCN(Cc2nc3ccccc3s2)CC1` [DB4, 2-[(4-{4-allyl-5-[(3-chlorobenzyl)thio]-4H-1,2,4-triazol-3-yl}-1-piperidinyl)methyl]-1,3-benzothiazole] the PD-L1 protein level (PD-L1; BRCA-wild type EOC cells) was “up-regulation of PD-L1 protein”, the PD-L1-positive population (PD-L1; PEO4 cells in the presence of IFNγ) was “significantly increased” and the “sensitization to olaparib (cell survival)” value (PEO4 cells) was “effectively sensitized”.
